“Also recorded” adds a separate entry of the source.
Key:
[1] = biological target: T1, glycoprotein VI (GPVI) receptor (Homo sapiens, UniProt Q9HCN6); conditions: Smethurst et al.; cited from earlier work
T1 sequence (Q9HCN6 21-339): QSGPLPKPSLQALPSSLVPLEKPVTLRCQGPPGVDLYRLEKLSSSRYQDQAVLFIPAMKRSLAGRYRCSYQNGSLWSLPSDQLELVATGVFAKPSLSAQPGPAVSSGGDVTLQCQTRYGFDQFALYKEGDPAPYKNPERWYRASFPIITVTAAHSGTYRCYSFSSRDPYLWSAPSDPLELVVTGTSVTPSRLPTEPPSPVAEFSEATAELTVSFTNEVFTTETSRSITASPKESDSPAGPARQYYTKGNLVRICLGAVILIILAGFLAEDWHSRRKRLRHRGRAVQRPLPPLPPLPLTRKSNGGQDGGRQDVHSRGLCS
T1 sequence (P30273 19-86 partner): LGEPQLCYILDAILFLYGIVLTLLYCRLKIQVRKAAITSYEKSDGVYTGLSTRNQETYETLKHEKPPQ

[2] = test system: platelets; assay: PPAnalysis flow cytometry assay of platelet sensitivity (p-selectin exposure) to CRP-XL in patients with ischaemic heart disease; type: cell-based, human; conditions: for sensitivity to CRP-XL of patients receiving aspirin compared with aspirin-free patients: patients with ischaemic heart disease, student's t-test
Procedure: The flow cytometry assay measured fluorescein isothiocyanate-conjugated anti-fibrinogen antibody and PE-Cy5-conjugated anti-P-selectin antibody binding following stimulation with ADP ([…]), collagen-related peptide (CRP; […]), epinephrine ([…]), thrombin receptor activator peptide 6 (TRAP-6; […]), and U46619 ([…]) using an Accuri C6 (B D, Winnersh, UK) for cohort 1 and a Beckman-Coulter EPICS Profile XL for cohort 2, as described in supplemental Section 2 of Dunster 2021 (Dunster et al. Multiparameter phenotyping of platelet reactivity for stratification of human cohorts, Blood Adv (2021) 5(20): 4017-4030).
A Platelet Phenomic Analysis (PPAnalysis) assay was carried out described in Dunster 2021. PPAnalysis comprises a flow cytometry-based assay and bespoke software that was developed to make data analysis simple, rapid, and reproducible. The assay simultaneously measures 2 aspects of platelet activation, fibrinogen binding (a marker of αllßb3 activation) and the exposure of P-selectin on the platelet surface (a marker of a-granule secretion). The supplementary information accompanying Dunster 2021 provides step-by-step instructions for setting up and carrying out the PPAnalysis assay and data analysis.

[3] = test system: platelets in whole blood; assay: In vitro thrombus formation on type I collagen, whole blood perfused at arterial shear rate; type: cell-based, human; conditions: patients with ischaemic heart disease, 6 minutes, 1000 s^-1, student's t-test
Procedure: Thrombus formation on immobilized type I collagen was performed using the VenaFlux Platform and Vena 8Fluor+Biochips (Cellix). Channels were coated overnight at 4° C. with collagen, then blocked with 1% BSA/PBS for 1 h and replaced with PBS. Blood was collected into sodium citrate (4% w/v). Platelets in whole blood were incubated with 10 mM DiOC6 (Thermo Fisher Scientific) for 10 min. Perfusion was performed at 37° C. with an arterial shear rate of 1000 s^−1 for at least 520 seconds. Thrombus formation was visualised using a 20× magnification lens on a Nikon A1-R confocal microscope. Images were brightness corrected and converted to a binary mask with software provided auto-thresholds. Binary Mask Particles were then analysed to determine thrombus count and size.

Compound: (GPC-(GPO)10-GPCG-amide)3 [CRP-XL]
- platelet agonist potency compared with non-cross-linked CRP [1]: more potent platelet agonist

Compound: CC(=O)Oc1ccccc1C(=O)O [aspirin]
- sensitivity to CRP-XL of patients receiving ASA ([2]; patients with ischaemic heart disease receiving ASA, mean ± spread, ASA free patients 7.4±0.49): 7.2±0.37 log g/mL
- sensitivity to CRP-XL of patients receiving aspirin compared with aspirin-free patients [2]: lower sensitivity to CRP-XL
- sensitivity to CRP-XL of patients receiving aspirin compared with aspirin-free patients ([2]; listed as ASA): significantly lower
- in vitro thrombus volume in patients with versus without aspirin [3]: not reduced; also recorded: not significantly different

— US20260276652A1, “METHODS FOR ASSESSING PLATELET FUNCTION” (UNIVERSITY OF READING, priority 2023, published 2026)
